We go through three molecules from ChEMBL document CHEMBL4321793, “Can Cysteine Protease Cross-Class Inhibitors Achieve Selectivity?” (J Med Chem, 2019).

For data set [1], the target named is T1, Procathepsin L (Homo sapiens, UniProt P07711). In words: Inhibition of human cathepsin L.
The next data set concerns the target Rhodesain (Trypanosoma brucei rhodesiense, UniProt Q95PM0). The data set can be described thus: Inhibition of Trypanosoma brucei rhodesiense rhodesain.
A further data set has as its target Cathepsin B (Homo sapiens, UniProt P07858). In words: Reversible inhibition of human cathepsin B.
The target in a further data set is Cruzipain (Trypanosoma cruzi, UniProt P25779). In words: Reversible inhibition of Trypanosoma cruzi cruzipain.
Sequence of Cruzipain (P25779 whole entry): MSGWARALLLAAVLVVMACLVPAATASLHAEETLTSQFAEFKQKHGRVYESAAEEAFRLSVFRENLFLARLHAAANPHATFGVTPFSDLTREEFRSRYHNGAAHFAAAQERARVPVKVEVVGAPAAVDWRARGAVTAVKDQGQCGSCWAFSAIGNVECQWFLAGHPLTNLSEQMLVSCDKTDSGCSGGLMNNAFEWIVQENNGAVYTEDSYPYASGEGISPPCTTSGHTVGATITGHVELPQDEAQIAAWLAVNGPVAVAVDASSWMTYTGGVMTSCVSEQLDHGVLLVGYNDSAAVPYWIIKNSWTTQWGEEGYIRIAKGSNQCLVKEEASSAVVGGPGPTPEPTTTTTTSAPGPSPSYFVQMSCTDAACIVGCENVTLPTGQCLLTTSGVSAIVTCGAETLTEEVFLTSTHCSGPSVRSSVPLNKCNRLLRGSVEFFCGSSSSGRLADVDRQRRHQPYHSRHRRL
The subject of data set [2] is human cathepsin L versus Trypanosoma cruzi cruzipain. The data set can be described thus: Selectivity ratio of IC50 for reversible inhibition of human cathepsin L to IC50 for reversible inhibition of Trypanosoma cruzi cruzipain. The data set is classed as toxicity. The note with it: read-out: Ratio IC50.
Data set [3] has as its target T1, Procathepsin L. In words: Reversible inhibition of human cathepsin L.
Data set [4] concerns human cathepsin B versus Trypanosoma cruzi cruzipain. The data set can be described thus: Selectivity ratio of IC50 for reversible inhibition of human cathepsin B to IC50 for reversible inhibition of Trypanosoma cruzi cruzipain. The format is toxicity. Particulars: read-out: Ratio IC50.

T1 sequence (P07711 whole entry): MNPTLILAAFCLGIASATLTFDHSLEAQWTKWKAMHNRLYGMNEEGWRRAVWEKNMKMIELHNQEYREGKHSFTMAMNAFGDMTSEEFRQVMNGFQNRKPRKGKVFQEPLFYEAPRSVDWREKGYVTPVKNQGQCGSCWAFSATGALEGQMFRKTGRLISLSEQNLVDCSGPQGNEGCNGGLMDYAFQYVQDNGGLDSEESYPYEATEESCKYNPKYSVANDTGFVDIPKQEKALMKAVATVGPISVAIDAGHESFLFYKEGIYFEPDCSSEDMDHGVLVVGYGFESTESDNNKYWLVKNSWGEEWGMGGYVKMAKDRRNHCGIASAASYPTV
Sequence of Rhodesain (Q95PM0 whole entry): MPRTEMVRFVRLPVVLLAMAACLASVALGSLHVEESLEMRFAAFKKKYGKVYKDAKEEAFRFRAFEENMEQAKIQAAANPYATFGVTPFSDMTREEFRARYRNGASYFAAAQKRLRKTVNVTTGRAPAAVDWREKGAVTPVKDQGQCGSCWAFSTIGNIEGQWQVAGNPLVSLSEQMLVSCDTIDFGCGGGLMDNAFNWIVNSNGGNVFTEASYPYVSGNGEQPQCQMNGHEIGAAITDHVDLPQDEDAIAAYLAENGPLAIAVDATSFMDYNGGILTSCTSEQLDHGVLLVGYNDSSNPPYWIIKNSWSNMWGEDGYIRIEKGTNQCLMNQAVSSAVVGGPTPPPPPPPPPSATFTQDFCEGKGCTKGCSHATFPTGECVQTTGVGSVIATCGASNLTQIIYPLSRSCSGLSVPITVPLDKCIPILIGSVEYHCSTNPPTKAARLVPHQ

At Procathepsin L [1], `N#Cc1nc(N2CCOCC2)nc(N(Cc2ccc3c(c2)OCO3)C2CCCCC2)n1` returned an inhibition constant (Ki) of 33 nM.

On to `CCC[C@H]1CC[C@H](N(Cc2ccc3c(c2)OCO3)c2nc(C#N)nc(N3CCOCC3)n2)CC1`, for which the values for the inhibition constant (Ki) at Rhodesain and on Procathepsin L [1] were 2 nM and 690 nM, respectively.

As to `CC(C)(F)C[C@H](N[C@@H](c1ccc(-c2ccc(N3CCNCC3)cc2)cc1)C(F)(F)F)C(=O)NCC#N`, the IC50 at Cathepsin B was found to be 1110 nM; on Cruzipain it was 0.8 nM; at Procathepsin L [3] it was 47 nM. In addition, the selectivity ratio in data set [2] was 58; in data set [4] it was 1390.

By Ki is commonly meant a measure of affinity in units of concentration, obtained from inhibition or displacement. A lower Ki goes with tighter binding. For orientation: IC50 means the concentration at which inhibition is half-maximal. Lower therefore signals higher potency.
